# Data reported in patent publication US20260028365A1 (BIOGEN MA INC., priority 2022, published 2026).
# Where two headings read alike, the source gives them in different places.
# Legend:
# JH2 domain of human Tyk2 = JH2 domain of human Tyk2 (Homo sapiens (Human), UniProt P29597); assay: JH2 Biochemical Assay (TR-FRET probe displacement); assay type: binding
# Tyk2 = Tyk2 (Homo sapiens (Human), UniProt P29597); assay: pSTAT4 Cell Assay (MSD, NK92 cells); assay type: cell-based
# [1] = TR-FRET probe displacement, JH2 domain
# [2] = TR-FRET probe displacement, JH2 domain of human Tyk2
# [3] = JH2 domain of human Tyk2, TR-FRET probe displacement
# Chain of Tyk2 (P29597 whole entry, the tested form may be a part): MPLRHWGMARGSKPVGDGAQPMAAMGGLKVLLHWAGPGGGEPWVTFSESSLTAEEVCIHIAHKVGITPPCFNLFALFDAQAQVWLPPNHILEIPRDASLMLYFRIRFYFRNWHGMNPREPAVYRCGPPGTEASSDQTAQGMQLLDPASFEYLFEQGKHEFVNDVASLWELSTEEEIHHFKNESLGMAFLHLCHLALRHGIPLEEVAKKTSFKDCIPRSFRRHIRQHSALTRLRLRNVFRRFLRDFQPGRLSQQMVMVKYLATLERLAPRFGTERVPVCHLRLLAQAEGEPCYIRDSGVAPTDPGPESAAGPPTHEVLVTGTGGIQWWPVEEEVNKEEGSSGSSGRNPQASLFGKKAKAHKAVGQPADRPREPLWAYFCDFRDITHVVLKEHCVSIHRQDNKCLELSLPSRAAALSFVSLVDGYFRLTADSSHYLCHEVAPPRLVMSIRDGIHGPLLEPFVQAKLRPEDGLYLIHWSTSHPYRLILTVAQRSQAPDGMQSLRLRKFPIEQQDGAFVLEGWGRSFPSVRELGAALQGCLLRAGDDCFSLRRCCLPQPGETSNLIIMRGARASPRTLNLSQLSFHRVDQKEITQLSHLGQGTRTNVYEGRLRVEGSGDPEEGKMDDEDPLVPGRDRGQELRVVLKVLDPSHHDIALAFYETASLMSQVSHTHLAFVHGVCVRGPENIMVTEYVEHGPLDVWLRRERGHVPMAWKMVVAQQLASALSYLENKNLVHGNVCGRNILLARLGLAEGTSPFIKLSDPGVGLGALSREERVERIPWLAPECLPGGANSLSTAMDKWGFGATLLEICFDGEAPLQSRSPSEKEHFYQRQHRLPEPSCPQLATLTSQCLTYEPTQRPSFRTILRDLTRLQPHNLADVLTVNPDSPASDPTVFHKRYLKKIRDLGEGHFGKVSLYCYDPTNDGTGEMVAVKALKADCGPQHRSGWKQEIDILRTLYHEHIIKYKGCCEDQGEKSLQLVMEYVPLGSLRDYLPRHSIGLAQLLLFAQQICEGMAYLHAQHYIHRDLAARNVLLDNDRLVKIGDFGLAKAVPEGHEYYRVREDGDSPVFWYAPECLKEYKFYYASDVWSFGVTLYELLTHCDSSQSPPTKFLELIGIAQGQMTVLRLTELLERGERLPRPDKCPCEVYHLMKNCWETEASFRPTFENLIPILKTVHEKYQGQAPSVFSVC
# Chain of JH2 domain of human Tyk2 (P29597 575-876): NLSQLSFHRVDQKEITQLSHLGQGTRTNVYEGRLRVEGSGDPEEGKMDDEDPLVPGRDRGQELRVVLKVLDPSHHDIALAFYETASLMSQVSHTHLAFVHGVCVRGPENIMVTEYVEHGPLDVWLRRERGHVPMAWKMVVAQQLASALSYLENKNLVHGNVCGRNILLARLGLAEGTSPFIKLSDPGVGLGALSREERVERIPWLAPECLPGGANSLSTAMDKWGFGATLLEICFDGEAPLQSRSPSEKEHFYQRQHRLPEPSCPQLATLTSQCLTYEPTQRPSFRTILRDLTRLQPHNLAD
SMILES,IC50 (JH2 domain of human Tyk2; [1]),IC50 (Tyk2),IC50 (JH2 domain of human Tyk2; [2]),IC50 (Tyk2; MSD),IC50 (JH2 domain of human Tyk2; [3])
"CC(=O)Nc1cc(Nc2cc(C)nc(C(C)(F)F)n2)c(-c2csc(CN3CCN(C)CC3)n2)cn1 [Example 787, N-(4-((2-(1,1-difluoroethyl)-6-methylpyrimidin-4-yl)amino)-5-(2-((4-methylpiperazin-1-yl)methyl)thiazol-4-yl)pyridin-2-yl)acetamide]",≤ 10 nM,≤ 10 nM,,,
"C=Cc1cc(Nc2cc(NC(C)=O)ncc2OCCOC)nc(C(C)(F)F)n1 [Example 55, N-(4-((2-(1,1-difluoroethyl)-6-vinylpyrimidin-4-yl)amino)-5-(2-methoxyethoxy)pyridin-2-yl)acetamide]",,,≤ 10 nM,≤ 10 nM,
"COc1nccc(-c2cnc(NC(C)=O)cc2Nc2ccnc(C(C)(C)F)n2)n1 [Example 180, N-(4-((2-(2-fluoropropan-2-yl)pyrimidin-4-yl)amino)-5-(2-methoxypyrimidin-4-yl)pyridin-2-yl)acetamide]",,,≤ 10 nM,≤ 10 nM,
"CC(=O)Nc1cc(Nc2cc(C)nc(C(C)(F)F)n2)c(OCC2COCC3(CCC3)O2)cn1 (stereo not drawn) [Example 443, N-(5-((5,8-dioxaspiro[3.5]nonan-6-yl)methoxy)-4-((2-(1,1-difluoroethyl)-6-methylpyrimidin-4-yl)amino)pyridin-2-yl)acetamide]",,,,10 to 100 nM,≤ 10 nM
"COc1cnc(NC(C)=O)cc1Nc1cc(-c2cnn(CC3CC3)c2)nc(C(C)(F)F)n1 [Example 378, N-(4-((6-(1-(cyclopropylmethyl)-1H-pyrazol-4-yl)-2-(1,1-difluoroethyl)pyrimidin-4-yl)amino)-5-methoxypyridin-2-yl)acetamide]",,,,10 to 100 nM,≤ 10 nM
"CC(=O)Nc1cc(Nc2cc(C)nc(C(C)(F)F)n2)c(OC2CCN(C)C2)cn1 (stereo not drawn) [Example 478, N-(4-((2-(1,1-difluoroethyl)-6-methylpyrimidin-4-yl)amino)-5-((1-methylpyrrolidin-3-yl)oxy)pyridin-2-yl)acetamide]",,,,100 to 1000 nM,≤ 10 nM
"COC1(COc2cnc(NC(C)=O)cc2Nc2cc(C)nc(C(C)(F)F)n2)CCC1 [Example 493, N-(4-((2-(1,1-difluoroethyl)-6-methylpyrimidin-4-yl)amino)-5-((1-methoxycyclobutyl)methoxy)pyridin-2-yl)acetamide]",,,,10 to 100 nM,≤ 10 nM
"CCOc1cnc(NC(C)=O)cc1Nc1cc(-c2cnn(CCOC)c2)nc(C(C)(F)F)n1 [Example 310, N-(4-((2-(1,1-difluoroethyl)-6-(1-(2-methoxyethyl)-1H-pyrazol-4-yl)pyrimidin-4-yl)amino)-5-ethoxypyridin-2-yl)acetamide]",,,≤ 10 nM,10 to 100 nM,
"CC(=O)Nc1cc(Nc2ccnc(C(C)(F)F)n2)c(-c2cnn(C3CCC3)c2)cn1 [Example 579, N-(5-(1-cyclobutyl-1H-pyrazol-4-yl)-4-((2-(1,1-difluoroethyl)pyrimidin-4-yl)amino)pyridin-2-yl)acetamide]",,,,≥ 1000 nM,100 to 1000 nM
"CC(=O)Nc1cc(Nc2ccnc(C(C)(F)F)n2)c(-c2ccn(CC3CC3)n2)cn1 [Example 704, N-(5-(1-(cyclopropylmethyl)-1H-pyrazol-3-yl)-4-((2-(1,1-difluoroethyl)pyrimidin-4-yl)amino)pyridin-2-yl)acetamide]",,,,≤ 10 nM,≤ 10 nM
"CCOc1cnc(NC(C)=O)cc1Nc1cc(C)nc(C2CC2(C)C)n1 (racemic) [Example 518, rac-(R)-N-(4-((2-(2,2-dimethylcyclopropyl)-6-methylpyrimidin-4-yl)amino)-5-ethoxypyridin-2-yl)acetamide]",,,,100 to 1000 nM,≤ 10 nM
"CC(=O)Nc1cc(Nc2ccnc(C(C)(F)F)n2)c(-c2csc(C#N)n2)cn1 [Example 790, N-(5-(2-cyanothiazol-4-yl)-4-((2-(1,1-difluoroethyl)pyrimidin-4-yl)amino)pyridin-2-yl)acetamide]",≤ 10 nM,≤ 10 nM,,,
